This test concerns ventricular myocytes. The experiment in a line: Micro cAMP measurement in tissue cultures with enzymatic fluorometric assay. It is filed as cell-based, rat. The note with it: isolated ventricular myocytes of 1 day-old rats, 2 μM IBMX, isoproterenol 1 μM final, 5 minutes, one-tenth of eluent, cAMP standard curve. As to the method: Isolated ventricular myocytes were obtained from hearts of 1 day-old rats, grown in primary cultures. There were approximately 5 million viable myocardial cells per heart. After plating at a density of approximately 1 million cells per 100 mm, dish cells were grown in minimum essential medium with Hanks balanced salt solution containing 5% bovine calf serum cells. Simpson et al., Cir. Res., 51, 787 (1982). On day 4, the medium was changed. The cultures contained >90% myocardial cells and cell numbers were constant over time. Simpson et al., Cir. Res., 51, 787 (1982); Rocha-Singh et al., J. Clin. Invest., 88, 204 (1991); and Rocha-Singh et al., J. Clin. Invest., 88, 706 (1991)
Six plates of myocytes were randomized into two groups (n=3 plates/group). […]
A volume of 125 μL of the Detecting Reaction Mixture prepared from (E) (100 mM Tris-HCl, pH 8.0; 3.2 mM EDTA; 0.6 mM NADP^+; 1 U/mL Phosphoglucose isomerase; 0.5 U/mL Glucose-6-phosphate dehydrogenase) was added to each assay tube from Cycling Reactions. After 20 minutes at room temperature, the final concentration of NADPH was measured using a fluorometer (Optical Technology Devises, Inc., NY). The fluorometer was set such that a reading of 10 fluorometric units was equivalent to 1 nmol of NADPH in 900 μL of buffer (50 mM Tris-HCl, pH 8.0). […]

For `CC(C)NCC(O)c1ccc(O)c(O)c1` (stereo not shown) [isoproterenol], the “actual value of cAMP” value is on record as 680 pmol/100 mm plate.
